Columns and labels:
A431 (ATCC: CRL-1555) = experiment: Test of cancer cell growth inhibition (SRB), A431; details: Homo sapiens, A-431, 72 h, read-out: IC50 A431
SK-Br3 (ATCC: HTB-30) = experiment: Test of cancer cell growth inhibition (SRB), SK-Br3; details: Homo sapiens, SK-BR-3, 72 h, read-out: IC50 SK-Br-3

Row | Structure (SMILES) | IC50 (A431 (ATCC: CRL-1555)) [nM] | IC50 (SK-Br3 (ATCC: HTB-30)) [nM]
1 | C=CC(=O)N1CCC[C@H]1C(=O)Nc1cc2c(Nc3ccc(OCc4ccccn4)c(Cl)c3)ncnc2cc1OCCF [Example 187, (2S)-1-acryloyl-pyrrolidine-2-carboxylic acid [4-[3-chloro-4-(pyridin-2-ylmethoxy)-phenylamino]-7-(2-fluoro-ethoxy)-quinazolin-6-yl]-amide] | 22 | 3
2 | C=CC(=O)N1CCC[C@H]1C(=O)Nc1cc2c(Nc3ccc4c(cnn4Cc4cccc(F)c4)c3)ncnc2cc1OC [Example 188, (2S)-1-acryloyl-pyrrolidine-2-carboxylic acid {4-[1-(3-fluoro-benzyl)-1H-indazol-5-ylamino]-7-methoxy-quinazolin-6-yl}-amide] | 24 | 6
3 | C=CC(=O)N(C)[C@@H](C)C(=O)Nc1cc2c(Nc3ccc(OCc4ccccn4)c(Cl)c3)ncnc2cc1OC [Example 191, (1S)—N-(1-{4-[3-chloro-4-(pyridin-2-ylmethoxy)-phenylamino]-7-methoxy-quinazolin-6-ylcarbamoyl}ethyl)-N-methyl-acrylamide] | 56 | 3
4 | C=CC(=O)NCCC(=O)Nc1cc2c(Nc3ccc(OCc4ccccn4)c(Cl)c3)ncnc2cc1F [Example 192, N-(2-{4-[3-chloro-4-(pyridin-2-ylmethoxy)-phenylamino]-7-fluoro-quinazolin-6-ylcarbamoyl}-ethyl)-acrylamide] | 36 | 6
5 | C=CC=CCn1ncc2cc(Nc3ncnc4cc(OC)c(NC(=O)[C@@H]5CCCN5C(=O)C=C)cc34)ccc21 [Example 193, (2S)-1-acryloyl-pyrrolidine-2-carboxylic acid [7-methoxy-4-(1-penta-2,4-dienyl-1H-indazol-5-ylamino)-quinazolin-6-yl]-amide] | 75 | 22
6 | C=CC(=O)N1CCC[C@H]1C(=O)Nc1cc2c(Nc3ccc(OCc4cccc(C)n4)c(Cl)c3)ncnc2cc1OC [Example 194, (2S)-1-acryloyl-pyrrolidine-2-carboxylic acid {4-[3-chloro-4-(6-methyl-pyridin-2-ylmethoxy)-phenylamino]-7-methoxy-quinazolin-6-yl}-amide] | 93 | 56
7 | C=CC(=O)N1CCC1C(=O)Nc1cc2c(Nc3ccc(OCc4ccccn4)c(Cl)c3)ncnc2cc1F (stereo not shown) [Example 195, 1-acryloyl-azetidine-2-carboxylic acid {4-[3-chloro-4-(pyridin-2-ylmethoxy)-phenylamino]-7-fluoro-quinazolin-6-yl}-amide] | 119 | 44
8 | C=CC(=O)N1CCCCC1C(=O)Nc1cc2c(Nc3ccc(OCc4ccccn4)c(Cl)c3)ncnc2cc1OC (stereo not shown) [Example 196, 1-acryloyl-piperidine-2-carboxylic acid {4-[3-chloro-4-(pyridin-2-ylmethoxy)-phenylamino]-7-methoxy-quinazolin-6-yl}-amide] | 88 | 25
9 | C=CC(=O)N1CCC(C(=O)Nc2cc3c(Nc4ccc(OCc5ccccn5)c(Cl)c4)ncnc3cc2OC)CC1 [Example 197, 1-acryloyl-piperidine-4-carboxylic acid {4-[3-chloro-4-(pyridin-2-ylmethoxy)-phenylamino]-7-methoxy-quinazolin-6-yl}-amide] | 259 | 196
10 | C=CC(=O)N1CCC(C(=O)Nc2cc3c(Nc4ccc(OCc5ccccn5)c(Cl)c4)ncnc3cc2OC)C1 (stereo not shown) [Example 198, 1-acryloyl-pyrrolidine-3-carboxylic acid {4-[3-chloro-4-(pyridin-2-ylmethoxy)-phenylamino]-7-methoxy-quinazolin-6-yl}-amide] | 47 | 24
11 | C=CC(=O)N1CCC1C(=O)Nc1cc2c(Nc3ccc(OCc4ccccn4)c(Cl)c3)ncnc2cc1OCC (stereo not shown) [Example 199, 1-acryloyl-azetidine-2-carboxylic acid {4-[3-chloro-4-(pyridin-2-ylmethoxy)-phenylamino]-7-ethoxy-quinazolin-6-yl}-amide] | 145 | 96
12 | C=CC(=O)N1CC(C(=O)Nc2cc3c(Nc4ccc(OCc5ccccn5)c(Cl)c4)ncnc3cc2OC)C1 [Example 200, 1-acryloyl-azetidine-3-carboxylic acid {4-[3-chloro-4-(pyridin-2-ylmethoxy)-phenylamino]-7-methoxy-quinazolin-6-yl}-amide] | 332 | 8

The next lines start with the values.

Row | IC50 (A431 (ATCC: CRL-1555)) [nM] | IC50 (SK-Br3 (ATCC: HTB-30)) [nM] | Structure (SMILES)
13 | 148 | 25 | C=CC(=O)N1CCC[C@H](C(=O)Nc2cc3c(Nc4ccc(OCc5ccccn5)c(Cl)c4)ncnc3cc2OC)C1 [Example 201, (3S)-1-acryloyl-piperidine-3-carboxylic acid {4-[3-chloro-4-(pyridin-2-ylmethoxy)-phenylamino]-7-methoxy-quinazolin-6-yl}-amide]
14 | 105 | 6 | C=CC(=O)N(CC)[C@@H](C)C(=O)Nc1cc2c(Nc3ccc(OCc4ccccn4)c(Cl)c3)ncnc2cc1OC [Example 202, N-((1S)-1-{4-[3-chloro-4-(pyridin-2-ylmethoxy)-phenylamino]-7-methoxy-quinazolin-6-ylcarbamoyl}-ethyl)-N-ethyl-acrylamide]
15 | 269 | 34 | C=CC(=O)N1CCC[C@H]1C(=O)Nc1cc2c(Nc3ccc(OCCF)c(Cl)c3)ncnc2cc1OC [Example 203, (2S)-1-acryloyl-pyrrolidine-2-carboxylic acid {4-[3-chloro-4-(2-fluoro-ethoxy)-phenylamino]-7-methoxy-quinazolin-6-yl}-amide]
16 | 85 | 30 | C=CC(=O)N1CCC[C@H]1C(=O)Nc1cc2c(Nc3ccc(OCc4cccnc4)c(Cl)c3)ncnc2cc1OC [Example 204, (2S)-1-acryloyl-pyrrolidine-2-carboxylic acid {4-[3-chloro-4-(pyridin-3-ylmethoxy)-phenylamino]-7-methoxy-quinazolin-6-yl}-amide]
17 | 17 | 10 | C=CC(=O)NCC(F)C(=O)Nc1cc2c(Nc3ccc(OCc4ccccn4)c(Cl)c3)ncnc2cc1OC (stereo not shown) [Example 206, N-(2-{4-[3-chloro-4-(pyridin-2-ylmethoxy)-phenylamino]-7-methoxy-quinazolin-6-ylcarbamoyl}-2-fluoro-ethyl)-acrylamide]
18 | 44 | 3 | C=CC(=O)N1CCC[C@H]1C(=O)Nc1cc2c(Nc3ccc(OCc4cccnc4)c(Cl)c3)ncnc2cc1OCCCN1CCOCC1 [Example 209, (2S)-1-acryloyl-pyrrolidine-2-carboxylic acid {4-[3-chloro-4-(pyridin-3-ylmethoxy)-phenylamino]-7-(3-morpholin-4-yl-propoxy)-quinazolin-6-yl}-amide]
19 | 98 | 9 | C=CC(=O)N[C@@H](C)CC(=O)Nc1cc2c(Nc3ccc(OCc4ccccn4)c(Cl)c3)ncnc2cc1OC [Example 212, (3S)-3-acryloylamino-N-{4-[3-chloro-4-(pyridin-2-ylmethoxy)-phenylamino]-7-methoxy-quinazolin-6-yl}-butyramide]
20 | 34 | 4 | C=CC(=O)N1CCC[C@H]1C(=O)Nc1cc2c(Nc3ccc(OCc4ccccn4)c(Cl)c3)ncnc2cc1OCCOC [Example 213, (2S)-1-acryloyl-pyrrolidine-2-carboxylic acid {4-[3-chloro-4-(pyridin-2-ylmethoxy)-phenylamino]-7-(2-methoxyethoxy)-quinazolin-6-yl}-amide]

Reference: patent publication US8003658B2, “Quinazoline derivatives for inhibiting cancer cell growth and method for the preparation thereof” (Hanmi Holdings Co., Ltd., priority 2004, dated 2011)
